Experimental data reported in patent US20180002288A1, “USE OF PICOLINAMIDES AS FUNGICIDES” (DOW AGROSCIENCES LLC, priority 2014, published 2018).
Like-named read-outs stand apart in the source and are kept apart here.

Key:
Puccinia triticina = assay: Wheat Brown Rust fungicidal activity (PUCCRT); format: in vivo; conditions: for pest or weed control at 100 ppm: wheat, high volume; for pest or weed control at 121.5 g/ha: Low Volume Cereal Activity at 121.5 g/Ha
Protocol: All fungicides were evaluated using the aforementioned method for their activity vs. all target diseases, unless stated otherwise. Wheat leaf blotch and brown rust activity were also evaluated using track spray applications, in which case the fungicides were formulated as EC formulations, containing 0.1% Trycol 5941 in the spray solutions. Wheat plants (variety Yuma) were grown from seed in a greenhouse in 50% mineral soil/50% soil-less Metro mix until the first leaf was fully emerged, with 7-10 seedlings per pot. These plants were inoculated with an aqueous spore suspension of Zymoseptoria tritici either prior to or after fungicide treatments. After inoculation the plants were kept in 100% relative humidity (one day in a dark dew chamber followed by two to three days in a lighted dew chamber at 20° C.) to permit spores to germinate and infect the leaf. The plants were then transferred to a greenhouse set at 20° C. for disease to develop. When disease symptoms were fully expressed on the 1st leaves of untreated plants, infection levels were assessed on a scale of 0 to 100 percent disease severity. Percent disease control was calculated using the ratio of disease severity on treated plants relative to untreated plants. Wheat plants (variety Yuma) were grown from seed in a greenhouse in 50% mineral soil/50% soil-less Metro mix until the first leaf was fully emerged, with 7-10 seedlings per pot. These plants were inoculated with an aqueous spore suspension of Puccinia triticina either prior to or after fungicide treatments. […] The plants were then transferred to a greenhouse set at 24° C. for disease to develop. Fungicide formulation, application and disease assessment followed the procedures as described in the Example A.

Zymoseptoria tritici = assay: Leaf Blotch of Wheat fungicidal activity (SEPTTR); format: in vivo; conditions: for pest or weed control at 100 ppm: wheat, high volume; for pest or weed control at 121.5 g/ha: Low Volume Cereal Activity at 121.5 g/Ha
Protocol: All fungicides were evaluated using the aforementioned method for their activity vs. all target diseases, unless stated otherwise. Wheat leaf blotch and brown rust activity were also evaluated using track spray applications, in which case the fungicides were formulated as EC formulations, containing 0.1% Trycol 5941 in the spray solutions. Wheat plants (variety Yuma) were grown from seed in a greenhouse in 50% mineral soil/50% soil-less Metro mix until the first leaf was fully emerged, with 7-10 seedlings per pot. These plants were inoculated with an aqueous spore suspension of Zymoseptoria tritici either prior to or after fungicide treatments. After inoculation the plants were kept in 100% relative humidity (one day in a dark dew chamber followed by two to three days in a lighted dew chamber at 20° C.) to permit spores to germinate and infect the leaf. The plants were then transferred to a greenhouse set at 20° C. for disease to develop. When disease symptoms were fully expressed on the 1st leaves of untreated plants, infection levels were assessed on a scale of 0 to 100 percent disease severity. Percent disease control was calculated using the ratio of disease severity on treated plants relative to untreated plants.

[1] = 24 h, 1 Day Protectant, read-out: PUCCRT 1DP % Control rating
[2] = 72 h, 3 Day Curative, read-out: PUCCRT 3DC % Control rating
[3] = 24 h, 1 Day Protectant, read-out: SEPTTR 1DP % Control rating
[4] = 72 h, 3 Day Curative, read-out: SEPTTR 3DC % Control rating
[5] = 24 h, 1 Day Protectant, read-out: PUCCRT 1DP (Wheat Brown Rust, 1 Day Protectant)
[6] = 72 h, 3 Day Curative, read-out: PUCCRT 3DC (Wheat Brown Rust, 3 Day Curative)
[7] = 24 h, 1 Day Protectant, read-out: SEPTTR 1DP (Wheat Leaf Blotch, 1 Day Protectant)
[8] = 72 h, 3 Day Curative, read-out: SEPTTR 3DC (Wheat Leaf Blotch, 3 Day Curative)

SMILES	pest or weed control at 100 ppm (Puccinia triticina; [1]) [%]	pest or weed control at 100 ppm (Puccinia triticina; [2]) [%]	pest or weed control at 100 ppm (Zymoseptoria tritici; [3]) [%]	pest or weed control at 100 ppm (Zymoseptoria tritici; [4]) [%]	pest or weed control at 121.5 g/ha (Puccinia triticina; [5]) [%]	pest or weed control at 121.5 g/ha (Puccinia triticina; [6]) [%]	pest or weed control at 121.5 g/ha (Zymoseptoria tritici; [7]) [%]	pest or weed control at 121.5 g/ha (Zymoseptoria tritici; [8]) [%]
COc1ccnc(C(=O)N[C@@H](C)C(=O)O[C@@H](C)[C@H](OCC2CC2)c2cccc(-c3ccccc3)c2)c1O [Example 131]	< 80	< 80	< 0	< 80				
COc1ccnc(C(=O)N[C@@H](C)C(=O)O[C@@H](C)[C@H](Oc2cc(F)ccc2F)c2ccccc2)c1O [Example 121]	> 80	< 80	< 80	> 80				
COc1cc(C)ccc1[C@@H](Oc1ccc(C)cc1)[C@H](C)OC(=O)[C@H](C)NC(=O)c1nccc(OC)c1O [Example 177]	< 80	< 0	> 80	> 80				
CC[C@H](NC(=O)c1nccc(OC)c1O)C(=O)O[C@@H](C)[C@H](Oc1cc(F)ccc1F)c1ccccc1 [Example 123]	> 80	< 80	< 80	< 80				
COc1ccnc(C(=O)N[C@@H](C)C(=O)O[C@@H](C)[C@H](Oc2cccc(Cl)c2)c2ccccc2)c1O [Example 118]	> 80	> 80	> 80	> 80				
COc1ccnc(C(=O)N[C@@H](C)C(=O)O[C@@H](C)[C@H](Oc2cccc(F)c2)c2cccc(-c3ccccc3)c2)c1OCOC(C)=O [Example 221]					> 80	< 80	> 80	< 80
COc1ccnc(C(=O)N[C@@H](C)C(=O)O[C@@H](C)[C@H](Oc2cccc(F)c2)c2ccccc2)c1O [Example 127]	> 80	> 80	> 80	> 80				
COc1ccnc(C(=O)N[C@@H](C)C(=O)O[C@@H](C)[C@H](Oc2ccc(C)cc2Cl)c2ccccc2)c1OCOC(C)=O [Example 244]					> 80	< 80	> 80	> 80
COc1cc(F)ccc1[C@@H](Oc1ccc(C)cc1Cl)[C@H](C)OC(=O)[C@H](C)NC(=O)c1nccc(OC)c1O [Example 169]	> 80	< 80	> 80	> 80				
COc1ccnc(C(=O)N[C@@H](C)C(=O)O[C@@H](C)[C@H](Oc2ccc(C)cc2)c2ccccc2)c1OCOC(C)=O [Example 248]					> 80	> 80	> 80	> 80
COc1cc(F)ccc1[C@@H](Oc1ccc(C)cc1)[C@H](C)OC(=O)[C@H](C)NC(=O)c1nccc(OC)c1O [Example 173]	> 80	> 80	> 80	> 80				
COc1cc(C)ccc1[C@@H](Oc1ccccc1)[C@H](C)OC(=O)[C@H](C)NC(=O)c1nccc(OC)c1O [Example 172]	> 80	> 80	> 80	> 80				
COc1ccnc(C(=O)N[C@@H](C)C(=O)O[C@@H](C)[C@H](Oc2ccc(C)cc2)c2ccc(C)cc2)c1OCOC(C)=O [Example 257]					> 80	> 80	> 80	> 80
COc1ccnc(C(=O)N[C@@H](C)C(=O)O[C@@H](C)[C@@H](OCC2CC2)c2ccccc2)c1O [Example 142]	> 80	> 80	< 80	< 80				
COc1ccnc(C(=O)N[C@@H](C)C(=O)O[C@@H](C)[C@H](Oc2ccc(F)cc2)c2ccccc2)c1O [Example 146]	> 80	> 80	> 80	> 80				
COc1ccnc(C(=O)N[C@@H](C)C(=O)O[C@@H](C)[C@H](Oc2cc(F)cc(Cl)c2)c2ccccc2)c1OCOC(C)=O [Example 206]					> 80	< 80	> 80	> 80
COc1ccnc(C(=O)N[C@@H](Cc2ccccc2)C(=O)O[C@@H](C)[C@H](Oc2cccc(F)c2)c2ccccc2)c1OC(C)=O [Example 190]					> 80	< 80	< 80	< 0
COc1ccnc(C(=O)N[C@@H](C)C(=O)O[C@@H](C)[C@H](Oc2ccccc2Cl)c2ccccc2)c1O [Example 117]	> 80	> 80	> 80	> 80				
COc1ccnc(C(=O)N[C@@H](C)C(=O)O[C@@H](C)[C@H](Oc2ccccc2)c2ccc(-c3ccccc3)cc2)c1O [Example 144]	> 80	< 80	> 80	< 80				
COc1ccnc(C(=O)N[C@@H](C)C(=O)O[C@@H](C)[C@H](Oc2ccccc2)c2cccc(-c3ccccc3)c2)c1OCOC(C)=O [Example 240]					> 80	< 80	> 80	> 80
CC[C@H](NC(=O)c1nccc(OC)c1O)C(=O)O[C@@H](C)[C@H](Oc1cc(F)cc(Cl)c1)c1ccccc1 [Example 124]	> 80	> 80	> 80	> 80				
C=CCOc1cc(F)ccc1[C@@H](Oc1ccccc1)[C@H](C)OC(=O)[C@H](C)NC(=O)c1nccc(OC)c1O [Example 167]	> 80	> 80	> 80	> 80				
COc1ccnc(C(=O)N[C@@H](C)C(=O)O[C@@H](C)[C@H](Oc2ccc(C(F)(F)F)cc2)c2ccccc2)c1OCOC(C)=O [Example 195]					> 80	< 80	> 80	> 80
COc1ccnc(C(=O)N[C@@H](C)C(=O)O[C@@H](C)[C@@H](Oc2ccccc2)c2ccccc2)c1OC(=O)C(C)C [Example 218]					< 0	< 0	> 80	< 80
COc1ccnc(C(=O)N[C@@H](C)C(=O)O[C@@H](C)C(Oc2ccc(F)cc2)c2ccc(F)cc2)c1O (stereo partly drawn) [Example 147]	> 80	< 80	> 80	> 80				
COc1cc(F)ccc1[C@@H](OC(=O)C(C)(C)C)[C@H](C)OC(=O)[C@H](C)NC(=O)c1nccc(OC)c1O [Example 290]	> 80	> 80	> 80	> 80				
COc1ccnc(C(=O)N[C@@H](C)C(=O)O[C@@H](C)[C@@H](OCC2CC2)c2ccccc2)c1OC(C)=O [Example 232]					> 80	> 80	< 0	> 80
